From patent US20100173935A1, “Muscarinic Receptor Agonists that are Effective in the Treatment of Pain, Alzheimer's Disease and Schizophrenia” (AstraZeneca AB, priority 2006, published 2010)
Read-outs that look alike come from different tables or passages of the source.

Assays:
human M4 receptor = target: T1, human M4 receptor (Homo sapiens, UniProt P08173); experiment: hM4 receptor GTPγS binding; format: biochemical
T1 construct: purchased Perkin-Elmer RBHM4M; host or cells: CHO cell membranes
T1 sequence (P08173 1-479): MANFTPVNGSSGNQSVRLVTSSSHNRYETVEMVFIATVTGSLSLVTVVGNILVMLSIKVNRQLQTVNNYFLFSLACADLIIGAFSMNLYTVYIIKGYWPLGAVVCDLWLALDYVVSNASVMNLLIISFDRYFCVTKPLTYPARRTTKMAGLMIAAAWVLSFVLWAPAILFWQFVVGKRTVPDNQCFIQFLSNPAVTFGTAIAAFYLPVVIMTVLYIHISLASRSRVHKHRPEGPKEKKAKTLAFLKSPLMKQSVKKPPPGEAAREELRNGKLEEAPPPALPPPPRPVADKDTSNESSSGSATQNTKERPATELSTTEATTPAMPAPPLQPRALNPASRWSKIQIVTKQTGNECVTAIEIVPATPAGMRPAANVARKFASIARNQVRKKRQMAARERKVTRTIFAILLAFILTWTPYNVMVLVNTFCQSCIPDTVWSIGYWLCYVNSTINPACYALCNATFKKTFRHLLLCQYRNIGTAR
Method: Membranes produced from Chinese hamster ovary cells (CHO) expressing the cloned human M4 receptor (human Muscarinic receptor subtype 4, gene bank access NM_000741), were obtained from Perkin-Elmer (RBHM4M). The membranes were thawed at 37° C., passed 3 times through a 23-gauge blunt-end needle, diluted in the GTPγS binding buffer (50 mM Hepes, 20 mM NaOH, 100 mM NaCl, 1 mM EDTA, 5 mM MgCl2, pH 7.4, 100 μM DTT). The EC50, IC50 and Emax of the compounds of the invention were evaluated from 10-point dose-response curves (three fold concentration range) done in 60 μl in 384-well non-specific binding surface plate (Corning). Ten microliters from the dose-response curves plate (5× concentration) were transferred to another 384 well plate containing the following: 10 μg of hM4 membranes, 500 μg of Flashblue beads (Perkin-Elmer) and GDP in a 25 μl volume. An additional 15 μl containing 3.3× (55000 dpm) of GTPγS (0.4 nM final) were added to the wells resulting in a total well volume of […]. Basal and maximal stimulated [^35S]GTPγS binding were determined in absence and presence of 30 μM of acetylcholine agonist. The membranes/beads mix were pre-incubated for 15 minutes at room temperature with 40 μM GDP prior to distribution In plates (20 μM final). The reversal of acetylcholine-induced stimulation (10 μM final) of [^35S]GTPγS binding was used to assay the antagonist properties (IC50) of the compounds. The plates were incubated for 60 minutes at room temperature with shaking, then centrifuged at 2000 rpm for 5 minutes. The radioactivity (cpm) were counted in a Trilux (Perkin-Elmer).
Values of EC50, IC50 and Emax were obtained using sigmoidal fits of a non-linear curve-fitting program (XLfit version 5.0.6 from ID Business Solutions Limited, Guildford, UK) of percent stimulated [^35S]GTRγS binding vs. log(molar ligand).
All EC50 and IC50 values are reported as arithmetic means±standard error of mean of ‘n’ independent experiments. […] The IC50 was the concentration of the compound of the invention at which 50% inhibition of acetylcholine [^35S]GTRγS binding stimulation has been observed.

human M2 receptor = target: T2, human M2 receptor (Homo sapiens, UniProt P08172); experiment: hM2 receptor GTPγS binding; format: biochemical
T2 construct: purchased Perkin-Elmer RBHM2M; host or cells: CHO cell membranes
T2 sequence (P08172 1-466): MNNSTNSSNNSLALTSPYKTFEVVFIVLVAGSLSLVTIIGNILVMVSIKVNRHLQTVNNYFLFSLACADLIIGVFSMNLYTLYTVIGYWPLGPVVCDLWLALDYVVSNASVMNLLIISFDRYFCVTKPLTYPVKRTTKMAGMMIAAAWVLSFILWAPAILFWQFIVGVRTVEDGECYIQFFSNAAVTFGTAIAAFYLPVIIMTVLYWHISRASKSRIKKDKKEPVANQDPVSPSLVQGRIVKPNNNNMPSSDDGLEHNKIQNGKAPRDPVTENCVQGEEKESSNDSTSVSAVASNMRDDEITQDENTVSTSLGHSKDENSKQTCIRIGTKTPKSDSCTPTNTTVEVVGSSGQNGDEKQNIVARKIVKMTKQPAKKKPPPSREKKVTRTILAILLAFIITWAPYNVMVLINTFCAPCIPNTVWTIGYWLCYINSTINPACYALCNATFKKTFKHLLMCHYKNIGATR
Method: Membranes produced from Chinese hamster ovary cells (CHO) expressing the cloned human M2 receptor (human Muscarinic receptor subtype 2, gene bank access NM_000739), were obtained from Perkin-Elmer (RBHM2M). The membranes were thawed at 37° C., passed 3 times through a 23-gauge blunt-end needle, diluted in the GTPγS binding buffer (50 mM Hepes, 20 mM NaOH, 100 mM NaCl, 1 mM EDTA, 5 mM MgCl2, pH 7.4, […] DTT). The EC50, IC50 and Emax of the compounds of the invention were evaluated from 10-point dose-response curves (three fold concentration range) done in 60 μl in 384-well non-specific binding surface plate (Corning). Ten microliters from the dose-response curves plate (5× concentration) were transferred to another 384 well plate containing the following: 10 μg of hM2 membranes, 500 μg of Flashblue beads (Perkin-Elmer) and GDP in a 25 μl volume. An additional 15 μl containing 3.3× (55000 dpm) of GTRγ35S (0.4 nM final) were added to the wells resulting in a total well volume of 50 μl. Basal and maximal stimulated [^35S]GTPγS binding were determined in absence and presence of 30 μM of acetylcholine agonist. The membranes/beads mix were pre-incubated for 15 minutes at room temperature with 25 μM GDP prior to distribution in plates (12.5 μM final). The reversal of acetylcholine-induced stimulation (2 μM final) of [^35S]GTPγS binding was used to assay the antagonist properties (IC50) of the compounds. The plates were incubated for 60 minutes at room temperature with shaking, then centrifuged at 2000 rpm for 5 minutes. The radioactivity (cpm) were counted in a Trilux (Perkin-Elmer).
Values of EC50, IC50 and Emax were obtained using sigmoidal fits of a non-linear curve-fitting program (XLfit version 5.0.6 from ID Business Solutions Limited, Guildford, UK) of percent stimulated [^35S]GTPγS binding vs. log(molar ligand).
All EC50 and IC50 values are reported as arithmetic means t standard error of mean of ‘n’ independent experiments. […] The IC50 was the concentration of the compound of the invention at which 50% inhibition of acetylcholine [^35S]GTPγS binding stimulation has been observed.

[1] = CHO membranes expressing cloned human M4, [35S]GTPγS binding, read-out: hM4 EC50
[2] = CHO membranes expressing cloned human M2, [35S]GTPγS binding, read-out: hM2 EC50

CCOC(=O)N1CC[C@H](N2CCC(n3c(=O)[nH]c4ccc(F)cc43)CC2)C1 (single isomer, unassigned) [Example 35]
EC50 (human M4 receptor): > 30 µM
EC50 (human M2 receptor): > 30 µM

CCOC(=O)N1CC[C@@H](N2CCC(n3c(=O)[nH]c4ccc(F)cc43)CC2)C1 (single isomer, unassigned) [Example 36]
EC50 (human M4 receptor): > 30 µM
EC50 (human M2 receptor): 4.65 µM

CCOC(=O)N1CCC(N2CCC(C3C(=O)Nc4ccccc43)CC2)C1 (stereo not shown) [Example 13, Ethyl 3-[4-(2-oxo-2,3-dihydro-1H-indol-3-yl)piperidin-1-yl]pyrrolidine-1-carboxylate]
EC50 (human M4 receptor; [1]): > 30 µM
EC50 (human M2 receptor; [2]): 3.54 µM

CCOC(=O)N1CC[C@@H](N2CCC(n3c(=O)[nH]c4ccccc43)CC2)C1 [Example 16, Ethyl (3R)-3-[4-(2-oxo-2,3-dihydro-1H-benzimidazol-1-yl)piperidin-1-yl]pyrrolidine-1-carboxylate]
EC50 (human M4 receptor; [1]): > 30 µM
EC50 (human M2 receptor; [2]): 3.29 µM

O=C(C1CCCC1)N1CC[C@H](N2CCC(n3c(=O)[nH]c4ccccc43)CC2)C1 [Example 19, 1-{1-[(3S)-1-(cyclopentylcarbonyl)pyrrolidin-3-yl]piperidin-4-yl}-1,3-dihydro-2H-benzimidazol-2-one]
EC50 (human M4 receptor): 0.577 µM
EC50 (human M2 receptor): 0.245 µM

O=C1CCCN1CCCC(=O)N1CC[C@H](N2CCC(n3c(=O)[nH]c4ccccc43)CC2)C1 [Example 22, 1-(1-{(3S)-1-[4-(2-oxopyrrolidin-1-yl)butanoyl]pyrrolidin-3-yl}piperidin-4-yl)-1,3-dihydro-2H-benzimidazol-2-one]
EC50 (human M4 receptor): > 30 µM
EC50 (human M2 receptor): > 30 µM

Cn1c(=O)n(C2CCN([C@H]3CCN(C(=O)CCN4CCCC4=O)C3)CC2)c2ccccc21 [Example 24, 1-methyl-3-(1-{(3S)-1-[3-(2-oxopyrrolidin-1-yl)propanoyl]pyrrolidin-3-yl}piperidin-4-yl)-1,3-dihydro-2H-benzimidazol-2-one]
EC50 (human M4 receptor; [1]): > 30 µM
EC50 (human M2 receptor; [2]): > 30 µM

CCOC(=O)N1CC[C@H](N2CCC(N3C(=O)Cc4ccccc43)CC2)C1 [Example 26, Ethyl (3S)-3-[4-(2-oxo-2,3-dihydro-1H-indol-1-yl)piperidin-1-yl]pyrrolidine-1-carboxylate]
EC50 (human M4 receptor): > 30 µM
EC50 (human M2 receptor): 7.45 µM

O=C1CCCN1CCC(=O)N1CC[C@H](N2CCC(N3C(=O)Cc4ccccc43)CC2)C1 [Example 29, 1-(1-{(3S)-1-[3-(2-oxopyrrolidin-1-yl)propanoyl]pyrrolidin-3-yl}piperidin-4-yl)-1,3-dihydro-2H-indol-2-one]
EC50 (human M4 receptor): > 30 µM
EC50 (human M2 receptor): 1.75 µM

CCOC(=O)N1CC[C@H](N2CCC(n3c(=O)[nH]c4ccc(C#N)cc43)CC2)C1 [Example 41, Ethyl (3S)-3-[4-(6-cyano-2-oxo-2,3-dihydro-1H-benzimidazol-1-yl)piperidin-1-yl]pyrrolidine-1-carboxylate]
EC50 (human M4 receptor): > 30 µM
EC50 (human M2 receptor): > 3.33 µM

CCOC(=O)N1CC[C@H](N2CCC(n3c(=O)[nH]c4ccc(Cl)cc43)CC2)C1 [Example 42, Ethyl (3S)-3-[4-(6-chloro-2-oxo-2,3-dihydro-1H-benzimidazol-1-yl)piperidin-1-yl]pyrrolidine-1-carboxylate]
EC50 (human M4 receptor): ≥ 10 µM
EC50 (human M2 receptor): 1.2 µM
